In patent publication US9040518B2, “Chemical compounds” (GlaxoSmithKline LLC, priority 2010, dated 2015):
Counter-ions that a name gives are not always drawn.

Target: ileal bile acid cotransporter (iBAT) (Homo sapiens (Human), UniProt Q12908)
Test: Human iBAT inhibition: [3H]-taurocholate uptake into HEK293 cells expressing human iBAT
Assay type: cell-based
Details: HEK293 cells transduced with human iBAT Bacmam virus, 90 minutes at ambient temperature, mean of at least 2 datapoints

Sequence of ileal bile acid cotransporter (iBAT) (Q12908 whole entry): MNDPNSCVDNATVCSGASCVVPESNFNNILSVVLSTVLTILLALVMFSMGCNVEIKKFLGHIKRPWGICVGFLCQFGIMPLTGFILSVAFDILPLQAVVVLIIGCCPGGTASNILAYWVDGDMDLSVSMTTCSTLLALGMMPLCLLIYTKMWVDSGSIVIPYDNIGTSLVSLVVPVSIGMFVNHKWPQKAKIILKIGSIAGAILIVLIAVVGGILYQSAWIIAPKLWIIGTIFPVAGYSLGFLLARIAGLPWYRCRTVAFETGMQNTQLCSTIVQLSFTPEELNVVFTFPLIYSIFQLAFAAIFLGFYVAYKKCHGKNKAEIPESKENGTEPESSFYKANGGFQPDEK

SMILES | IC50 [nM]
CCCC[C@]1(CC)CS(=O)(=O)c2cc(CNC(CC(=O)O)CC(=O)O)c(N(C)C)cc2[C@@H](c2ccccc2)N1 [Example 69, 3-({[(3R,5R)-3-butyl-7-(dimethylamino)-3-ethyl-1,1-dioxido-5-phenyl-2,3,4,5-tetrahydro-1,4-benzothiazepin-8-yl]methyl}amino)pentanedioic acid bis-ammonium salt] | 19
CCCC[C@]1(CC)CS(=O)(=O)c2cc(C(CC(=O)O)CC(=O)O)c(OC)cc2[C@@H](c2ccccc2)N1 [Example 72, 3-[(3R,5R)-3-butyl-3-ethyl-7-(methyloxy)-1,1-dioxido-5-phenyl-2,3,4,5-tetrahydro-1,4-benzothiazepin-8-yl]pentanedioic acid] | > 3000
